Measurements published in patent US20240245658A1, “TAAR1 AND SEROTONIN MODULATORS, AND PHARMACEUTICAL COMPOSITIONS, AND METHODS OF USE THEREOF” (Sunovion Pharmaceuticals Inc., priority 2021, published 2024).
Like-named read-outs stand apart in the source and are kept apart here.

What was measured:
Format in all cases: cell-based
human 5-HT2A receptor = target: T1, human 5-HT2A receptor (Homo sapiens, UniProt P28223); assay: 5HT2A Antagonism Assay (Euroscreen FAST-05051), IP-One HTRF
T1 construct: host or cells: CHO-K1
Method: 5HT2A Antagonism Assay Protocol (Euroscreen FAST-05051)
CHO-K1 cells expressing the human 5-HT2A receptor grown to mid-log phase in culture media without antibiotics, were detached with PBS-EDTA, centrifuged, and resuspended in the IP-One Gq kit (Cisbio Bioassays, 62IPAPEC) stimulation buffer.
For antagonist testing in a 384 well plate: 5 μl of cells (20,000 cells) were mixed with 5 μl of a mix of test compound and reference agonist (for a final assay concentration corresponding to its EC80) diluted in stimulation buffer. The plate was incubated for 60 minutes at 37° C. in a humidified atmosphere of 95% air with 5% CO2, then 5 μL of IP1-d2 and anti-IP1 cryptate detection reagents were added to each well, the plates were incubated for about 1 hour at about room temperature. Fluorescence ratios are measured according to the manufacturer's specification (IP-One Gq kit (Cisbio Bioassays, 62IPAPEC).
Dose response curves were performed in parallel with reference compounds (e.g., α-methyl-5-HT. Compounds were tested at the following nanomolar concentrations, in duplicate: 0.3 nM, 1 nM, 3 nM, 10 nM, 30 nM, 100 nM, 300 nM, 1,000 nM, 3,000 nM, and 10,000 nM

human TAAR1 receptors = target: T2, human TAAR1 receptors (Homo sapiens, UniProt Q96RJ0); assay: TAAR1 Agonism Assay: cAMP HTRF assay for Gs coupled receptor TAAR1 (Euroscreen FAST-0987C); settings: CHO-K1 cells expressing human TAAR1, cAMP HTRF
T2 construct: host or cells: CHO-K1
T2 sequence (Q96RJ0 1-339): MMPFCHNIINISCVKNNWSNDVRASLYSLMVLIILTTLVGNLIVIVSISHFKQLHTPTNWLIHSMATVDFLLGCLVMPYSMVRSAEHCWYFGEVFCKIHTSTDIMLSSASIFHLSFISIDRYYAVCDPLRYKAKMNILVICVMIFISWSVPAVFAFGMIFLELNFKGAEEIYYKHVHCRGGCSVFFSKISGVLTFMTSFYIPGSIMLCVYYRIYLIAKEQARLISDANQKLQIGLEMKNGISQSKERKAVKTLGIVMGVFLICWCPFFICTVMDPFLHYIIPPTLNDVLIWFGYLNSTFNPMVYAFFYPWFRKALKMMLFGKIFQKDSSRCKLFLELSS
Method: Dose response curves were performed in parallel with the reference compound, tyramine.
For the TAAR1 agonist test (performed in a 384 well plate): 5 μl of cells (about 3,000 cells) were mixed with 5 μl of the test compound diluted in assay buffer and then incubated for about 30 minutes at about room temperature. After addition of the lysis buffer containing cAMP-d2 and anti-cAMP cryptate detection reagents, plates were incubated for about a 1-hour incubation at about room temperature, and fluorescence ratios were measured according to the manufacturer specifications, with the HTRF (Homogeneous Time Resolved Fluorescence) kit (cAMP Gs dynamic kit, Cisbio Bioassays, 62AM4PEJ).
(§1) Compounds were tested at the following nanomolar concentrations, in duplicate: 0.3 nM, 1 nM, 3 nM, 10 nM, 30 nM, 100 nM, 300 nM, 1,000 nM, 3,000 nM, and 10,000 nM.

human 5-HT7 receptor = target: T3, human 5-HT7 receptor (Homo sapiens, UniProt P34969); assay: 5HT7 Antagonism Assay (Euroscreen FAST-0499C), cAMP HTRF; settings: CHO-K1 cells expressing human 5-HT7, reference agonist at EC80, cAMP HTRF
T3 construct: host or cells: CHO-K1
Method: 5HT7 Antagonism Assay Protocol (Euroscreen FAST-0499C)
CHO-K1 cells expressing the human 5-HT7 receptor, grown prior to the test in media without antibiotic, were detached by gentle flushing with PBS-EDTA (5 mM EDTA), recovered by centrifugation and resuspended in assay buffer (Krebs-Ringer HEPES buffer: 5 mM KCl, 1.25 mM MgSO4, 124 mM NaCl, 25 mM HEPES, 13.3 mM Glucose, 1.25 mM KH2PO4, 1.45 mM CaCl2), 0.5 g/l BSA, supplemented with 1 mM IBMX).
Dose response curves were performed in parallel with reference compounds (e.g., 5-carboxamidotryptamine (5-CT)).
For antagonist testing in a 384 well plate: 5 μl of cells (3000 cells) were mixed with 5 μl of a mix of test compound and reference agonist (for a final assay concentration corresponding to its EC80) diluted in assay buffer. The plates were then incubated for about 30 minutes at about room temperature. After addition of the lysis buffer containing cAMP-d2 and anti-cAMP cryptate detection reagents, plates were incubated for about 1 hour at about room temperature, and fluorescence ratios were measured according to the manufacturer's specifications (HTRF kit: cAMP Gs dynamic kit, Cisbio Bioassays, 62AM4PEJ).
as §1

[1] = read-out: 5-HT2A (IC50), CHO-K1 cells expressing human 5-HT2A, reference agonist at EC80, IP-One
[2] = 5-HT2A (IC50), CHO-K1 cells expressing human 5-HT2A, reference agonist at EC80, IP-One
[3] = CHO-K1 cells expressing human 5-HT2A, reference agonist at EC80, IP-One, read-out: 5-HT2A (IC50)

T3 sequence (P34969 whole entry): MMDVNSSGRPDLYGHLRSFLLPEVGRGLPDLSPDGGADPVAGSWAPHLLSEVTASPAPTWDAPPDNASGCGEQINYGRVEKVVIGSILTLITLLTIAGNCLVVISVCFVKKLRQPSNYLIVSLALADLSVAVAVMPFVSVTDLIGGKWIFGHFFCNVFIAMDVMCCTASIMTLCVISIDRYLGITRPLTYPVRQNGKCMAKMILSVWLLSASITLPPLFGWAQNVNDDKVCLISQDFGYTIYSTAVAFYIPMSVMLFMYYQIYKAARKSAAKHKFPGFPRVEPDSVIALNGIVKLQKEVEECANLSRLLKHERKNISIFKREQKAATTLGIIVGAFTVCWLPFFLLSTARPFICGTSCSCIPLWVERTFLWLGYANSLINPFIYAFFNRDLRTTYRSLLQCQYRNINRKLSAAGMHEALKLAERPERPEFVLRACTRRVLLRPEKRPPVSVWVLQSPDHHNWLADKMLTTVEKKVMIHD
T1 sequence (P28223 whole entry): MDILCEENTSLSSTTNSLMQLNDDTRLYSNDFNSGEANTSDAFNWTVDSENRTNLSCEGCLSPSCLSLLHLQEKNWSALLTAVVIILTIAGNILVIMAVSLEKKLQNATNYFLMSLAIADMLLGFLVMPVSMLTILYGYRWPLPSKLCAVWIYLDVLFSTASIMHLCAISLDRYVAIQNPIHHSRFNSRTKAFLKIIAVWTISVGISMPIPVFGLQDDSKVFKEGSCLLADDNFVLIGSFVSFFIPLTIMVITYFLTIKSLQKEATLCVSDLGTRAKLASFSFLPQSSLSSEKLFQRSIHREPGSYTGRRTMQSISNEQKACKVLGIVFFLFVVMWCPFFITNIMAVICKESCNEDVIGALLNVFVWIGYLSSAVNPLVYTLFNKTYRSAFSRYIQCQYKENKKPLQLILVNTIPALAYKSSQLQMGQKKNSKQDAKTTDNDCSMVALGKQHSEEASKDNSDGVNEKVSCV

SMILES | IC50 (human 5-HT2A receptor; [1]) | EC50 (human TAAR1 receptors) | IC50 (human 5-HT7 receptor) | IC50 (human 5-HT2A receptor; [2]) | IC50 (human 5-HT2A receptor; [3])
CNCC1Cc2ccccc2Oc2cc(F)ccc21 (single isomer, unassigned) [Compound 4, (S*)-1-(7-fluoro-10,11-dihydrodibenzo[b,f]oxepin-10-yl)-N-methylmethanamine] | < 1 µM | < 1 µM | 1 to 10 µM |  | 
CNCC1Cc2ccccc2Oc2cccnc21 (single isomer, unassigned) [Compound 5, (S*)-1-(10,11-dihydrobenzo[6,7]oxepino[3,2-b]pyridin-11-yl)-N-methylmethanamine] |  | < 1 µM | < 1 µM | < 1 µM | 
CNCC1Cc2ccccc2Oc2cccnc21 (single isomer, unassigned) [Compound 6, (R*)-1-(10,11-dihydrobenzo-[6,7]oxepino[3,2-b]pyridin-11-yl)-N-methylmethanamine] |  | < 1 µM | ≥ 10 µM | 1 to 10 µM | 
NCC1Cc2ccccc2Oc2cccnc21 (single isomer, unassigned) [Compound 7, (S*)-(10,11-dihydrobenzo[6,7]oxepino[3,2-b]pyridin-11-yl)methanamine] |  | < 1 µM | 1 to 10 µM | > 10 µM | 
NCC1Cc2ccccc2Oc2cccnc21 (single isomer, unassigned) [Compound 8, (R*)-(10,11-dihydrobenzo[6,7]oxepino[3,2-b]pyridin-11-yl)methanamine] | > 10 µM | < 1 µM | ≥ 10 µM |  | 
NCC1Cc2cccnc2Oc2ccccc21 (single isomer, unassigned) [Compound 17, (R*)-(5,6-dihydrobenzo[6,7]oxepino[2,3-b]pyridin-6-yl)methanamine] |  | < 1 µM | ≥ 10 µM | < 1 µM | 
NCC1Cc2cccnc2Oc2ccccc21 (single isomer, unassigned) [Compound 18, (S*)-(5,6-dihydrobenzo[6,7]oxepino[2,3-b]pyridin-6-yl)methanamine] |  | > 10 µM | ≥ 10 µM | > 10 µM | 
CNCC1Cc2cccnc2Oc2ccccc21 (single isomer, unassigned) [Compound 19, (R*)-1-(5,6-dihydrobenzo[6,7]oxepino[2,3-b]pyridin-6-yl)-N-methylmethanamine] |  | 1 to 10 µM | ≥ 10 µM |  | 1 to 10 µM
CNCC1Cc2cccnc2Oc2ccccc21 (single isomer, unassigned) [Compound 20, (S*)-1-(5,6-dihydrobenzo[6,7]oxepino[2,3-b]pyridin-6-yl)-N-methylmethanamine] |  | > 10 µM | ≥ 10 µM |  | > 10 µM
NCC1Cc2ccncc2Oc2ccccc21 (single isomer, unassigned) [Compound 21, (R*)-(5,6-dihydrobenzo[6,7]oxepino[2,3-c]pyridin-6-yl)methanamine] |  | < 1 µM | ≥ 10 µM | 1 to 10 µM | 
NCC1Cc2ccncc2Oc2ccccc21 (single isomer, unassigned) [Compound 22, (S*)-(5,6-dihydrobenzo[6,7]oxepino[2,3-c]pyridin-6-yl)methanamine] | 1 to 10 µM | 1 to 10 µM | ≥ 10 µM |  | 
CNCC1Cc2ccncc2Oc2ccccc21 (single isomer, unassigned) [Compound 23, (R*)-1-(5,6-dihydrobenzo[6,7]oxepino[2,3-c]pyridin-6-yl)-N-methylmethanamine] |  | < 1 µM | < 1 µM | < 1 µM | 
CNCC1Cc2ccncc2Oc2ccccc21 (single isomer, unassigned) [Compound 24, (S*)-1-(5,6-dihydrobenzo[6,7]oxepino[2,3-c]pyridin-6-yl)-N-methylmethanamine] | < 1 µM | > 10 µM | 1 to 10 µM |  | 
NCC1Cc2ncccc2Oc2ccccc21 (single isomer, unassigned) [Compound 29, (R*)-(10,11-dihydrobenzo[6,7]oxepino[3,2-b]pyridin-10-yl)methanamine] |  | 1 to 10 µM | ≥ 10 µM | 1 to 10 µM | 
NCC1Cc2ncccc2Oc2ccccc21 (single isomer, unassigned) [Compound 30, (S*)-(10,11-dihydrobenzo[6,7]oxepino[3,2-b]pyridin-10-yl)methanamine] | 1 to 10 µM | < 1 µM | ≥ 10 µM |  | 
CNCC1Cc2ncccc2Oc2ccccc21 (single isomer, unassigned) [Compound 31, (R*)-1-(10,11-dihydrobenzo[6,7]oxepino[3,2-b]pyridin-10-yl)-N-methylmethanamine] |  | > 10 µM | ≥ 10 µM | < 1 µM | 
CNCC1Cc2ncccc2Oc2ccccc21 (single isomer, unassigned) [Compound 32, (S*)-1-(10,11-dihydrobenzo[6,7]oxepino[3,2-b]pyridin-10-yl)-N-methylmethanamine] | < 1 µM | < 1 µM | ≥ 10 µM |  | 
NCC1Cc2ncccc2Oc2cc(F)ccc21 (single isomer, unassigned) [Compound 36, (S*)-(7-fluoro-10,11-dihydrobenzo[6,7]oxepino[3,2-b]pyridin-10-yl)methanamine] |  | < 1 µM | ≥ 10 µM | < 1 µM | 
CNC[C@H]1Cc2ncc(F)cc2Oc2ccccc21 (single isomer, unassigned) [Compound 38, (S*)-1-(3-fluoro-10,11-dihydrobenzo[6,7]oxepino[3,2-b]pyridin-10-yl)-N-methylmethanamine] |  | 1 to 10 µM | 1 to 10 µM |  | < 1 µM
NCC1Cc2ncc(F)cc2Oc2ccccc21 (single isomer, unassigned) [Compound 39, (R*)-(3-fluoro-10,11-dihydrobenzo[6,7]oxepino[3,2-b]pyridin-10-yl)methanamine] |  | 1 to 10 µM | ≥ 10 µM | < 1 µM | 
NCC1Cc2ncc(F)cc2Oc2ccccc21 (single isomer, unassigned) [Compound 40, (S*)-(3-fluoro-10,11-dihydrobenzo[6,7]oxepino[3,2-b]pyridin-10-yl)methanamine] | < 1 µM | < 1 µM | ≥ 10 µM |  | 
NCC1Oc2ccc(F)cc2Oc2ccccc21 (single isomer, unassigned) [Compound 41, (R*)-(7-fluoro-11H-dibenzo[b,e][1,4]dioxepin-11-yl)methanamine] |  | < 1 µM | 1 to 10 µM | < 1 µM | 
NCC1Oc2ccc(F)cc2Oc2ccccc21 (single isomer, unassigned) [Compound 42, (S*)-(7-fluoro-11H-dibenzo[b,e][1,4]dioxepin-11-yl)methanamine] | < 1 µM | < 1 µM | ≥ 10 µM |  | 
CNCC1Oc2ccc(F)cc2Oc2ccccc21 (single isomer, unassigned) [Compound 43, (R*)-1-(7-fluoro-11H-dibenzo[b,e][1,4]dioxepin-11-yl)-N-methylmethanamine] |  | < 1 µM | < 1 µM | < 1 µM | 
